Reference: ChEMBL document CHEMBL1201862, “PubChem BioAssay data set” (2004)
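Values below derive from 48-hour exposures of cells grown in 96-well plates, with endpoints linearly interpolated between the two concentrations bracketing the appropriate inhibition level. At the GI50, growth is halved.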 The source made the active and inactive calls. Rule as the data show it: active = GI50 up to about 1.1 µM and inactive = higher.

Experiments:
Test in all cases: inhibition of tumour cell growth, NCI panel, 48 h
[1] = tested on: SNB-75
[2] = tested on: NCI-H23
[3] = tested on: UACC-62
[4] = tested on: HCT-15
[5] = tested on: U-251
[6] = tested on: OVCAR-8
[7] = tested on: A549
[8] = tested on: HOP-92
[9] = tested on: UACC-257
[10] = tested on: COLO 205
[11] = tested on: OVCAR-3
[12] = tested on: NCI-H460
[13] = tested on: SK-MEL-5
[14] = tested on: Malme-3M
[15] = tested on: UO-31
[16] = tested on: MOLT-4
[17] = tested on: NCI-H522

| SMILES | GI50 [1] | GI50 [2] | GI50 [3] | GI50 [4] [µM] | GI50 [5] | GI50 [6] | GI50 [7] | GI50 [8] | GI50 [9] | GI50 [10] | GI50 [11] | GI50 [12] | GI50 [13] | GI50 [14] | GI50 [15] | GI50 [16] | GI50 [17] |
| --- | --- | --- | --- | --- | --- | --- | --- | --- | --- | --- | --- | --- | --- | --- | --- | --- | --- |
| C=C(C)CC(C(=O)O)c1ccc(C)cc1 (stereo not drawn) | > 100 µM (inactive) | > 100 µM (inactive) | > 100 µM (inactive) | > 100 | > 100 µM (inactive) | > 100 µM (inactive) | > 100 µM (inactive) | > 100 µM (inactive) | > 100 µM (inactive) | > 100 µM (inactive) | > 100 µM (inactive) | > 100 µM (inactive) | > 100 µM (inactive) | > 100 µM (inactive) | – | – | – |
| NC(=O)/N=C1\NC(Cc2ccccc2)C(=O)N1Cc1ccccc1 (stereo not drawn) | 89.9 µM (inactive) | > 100 µM (inactive) | > 100 µM (inactive) | > 100 | > 100 µM (inactive) | > 100 µM (inactive) | > 100 µM (inactive) | – | > 100 µM (inactive) | > 100 µM (inactive) | > 100 µM (inactive) | > 100 µM (inactive) | > 100 µM (inactive) | – | > 100 µM (inactive) | > 100 µM (inactive) | – |
| Cc1c2ncccc2c(C)c2c1[nH]c1ccccc12 | 10.6 µM (inactive) | 11.1 µM (inactive) | 15.3 µM (inactive) | 7.24 | 12.2 µM (inactive) | 10.5 µM (inactive) | 6.78 µM (inactive) | 7.98 µM (inactive) | 16.6 µM (inactive) | 13.1 µM (inactive) | 14.3 µM (inactive) | 5.18 µM (inactive) | – | 15.1 µM (inactive) | > 10 µM (inactive) | 2.02 µM (inactive) | 13 µM (inactive) |
| S=C1OC2CCCC[C@H]2O1 (stereo partly drawn) | > 100 µM (inactive) | > 100 µM (inactive) | > 100 µM (inactive) | – | > 100 µM (inactive) | > 100 µM (inactive) | > 100 µM (inactive) | > 100 µM (inactive) | > 100 µM (inactive) | > 100 µM (inactive) | > 100 µM (inactive) | > 100 µM (inactive) | > 100 µM (inactive) | – | > 100 µM (inactive) | > 100 µM (inactive) | > 100 µM (inactive) |
| Sc1nnc(-c2ccccc2)n1/N=C\c1ccc(-c2ccc(Cl)cc2)o1 | > 100 µM (inactive) | > 100 µM (inactive) | > 100 µM (inactive) | – | > 100 µM (inactive) | > 100 µM (inactive) | > 100 µM (inactive) | > 100 µM (inactive) | > 100 µM (inactive) | > 100 µM (inactive) | > 100 µM (inactive) | > 100 µM (inactive) | – | – | > 100 µM (inactive) | > 100 µM (inactive) | > 100 µM (inactive) |
| CN(C)CC1CCCC/C1=N/OC(=O)c1ccc(Cl)c(Cl)c1 (stereo not drawn) | 33.3 µM (inactive) | > 100 µM (inactive) | > 100 µM (inactive) | > 100 | > 100 µM (inactive) | > 100 µM (inactive) | > 100 µM (inactive) | 66.5 µM (inactive) | > 100 µM (inactive) | > 100 µM (inactive) | > 100 µM (inactive) | > 100 µM (inactive) | > 100 µM (inactive) | > 100 µM (inactive) | 70.6 µM (inactive) | – | > 100 µM (inactive) |
| CCOc1cccc2cccnc12 | > 100 µM (inactive) | > 100 µM (inactive) | > 100 µM (inactive) | – | – | > 100 µM (inactive) | > 100 µM (inactive) | > 100 µM (inactive) | > 100 µM (inactive) | > 100 µM (inactive) | > 100 µM (inactive) | > 100 µM (inactive) | > 100 µM (inactive) | > 100 µM (inactive) | > 100 µM (inactive) | > 100 µM (inactive) | > 100 µM (inactive) |
| Nc1ccc2c(c1)CC1c3ccccc3C(C2)c2ccccc21 | > 100 µM (inactive) | – | > 100 µM (inactive) | > 100 | > 100 µM (inactive) | > 100 µM (inactive) | > 100 µM (inactive) | > 100 µM (inactive) | > 100 µM (inactive) | > 100 µM (inactive) | – | > 100 µM (inactive) | > 100 µM (inactive) | > 100 µM (inactive) | > 100 µM (inactive) | > 100 µM (inactive) | > 100 µM (inactive) |
| Cc1ccc2ccc(-c3ccccc3)c3c2c1C(=O)c1ccccc1C3=O | 18.3 µM (inactive) | > 100 µM (inactive) | 92.7 µM (inactive) | – | > 100 µM (inactive) | 72.4 µM (inactive) | > 100 µM (inactive) | 26.1 µM (inactive) | > 100 µM (inactive) | > 100 µM (inactive) | 71.8 µM (inactive) | – | 53.6 µM (inactive) | > 100 µM (inactive) | > 100 µM (inactive) | > 100 µM (inactive) | 36.1 µM (inactive) |
| CSC1=NC=CCN1C | > 100 µM (inactive) | > 100 µM (inactive) | > 100 µM (inactive) | > 100 | > 100 µM (inactive) | > 100 µM (inactive) | > 100 µM (inactive) | – | > 100 µM (inactive) | > 100 µM (inactive) | > 100 µM (inactive) | > 100 µM (inactive) | > 100 µM (inactive) | > 100 µM (inactive) | > 100 µM (inactive) | > 100 µM (inactive) | > 100 µM (inactive) |
| CN(C)CC(=O)N1CCc2c([nH]c3ccccc23)C1c1cccnc1 (stereo not drawn) | 65 µM (inactive) | > 100 µM (inactive) | > 100 µM (inactive) | > 100 | > 100 µM (inactive) | > 100 µM (inactive) | > 100 µM (inactive) | 26.9 µM (inactive) | > 100 µM (inactive) | – | > 100 µM (inactive) | > 100 µM (inactive) | > 100 µM (inactive) | – | 22.5 µM (inactive) | > 100 µM (inactive) | > 100 µM (inactive) |
| COC1CCCc2c(OC(C)=O)ccc(OC(C)=O)c21 (stereo not drawn) | > 100 µM (inactive) | > 100 µM (inactive) | > 100 µM (inactive) | > 100 | > 100 µM (inactive) | – | > 100 µM (inactive) | 19.6 µM (inactive) | – | – | > 100 µM (inactive) | – | > 100 µM (inactive) | > 100 µM (inactive) | > 100 µM (inactive) | > 100 µM (inactive) | – |
| O=C(O)c1ccccc1NS(=O)(=O)c1ccc(Cl)cc1 | > 100 µM (inactive) | > 100 µM (inactive) | > 100 µM (inactive) | > 100 | > 100 µM (inactive) | > 100 µM (inactive) | > 100 µM (inactive) | 19 µM (inactive) | > 100 µM (inactive) | > 100 µM (inactive) | – | > 100 µM (inactive) | > 100 µM (inactive) | > 100 µM (inactive) | > 100 µM (inactive) | > 100 µM (inactive) | 54 µM (inactive) |
| C=C1C(=O)O[C@H]2[C@H]1[C@H](OC(=O)/C(C)=C\C)CC(=C)[C@@H]1[C@H](O)[C@H]3O[C@@]3(C)[C@@]12O [EUPATUNDIN] | > 100 µM (inactive) | > 100 µM (inactive) | > 100 µM (inactive) | > 100 | > 100 µM (inactive) | > 100 µM (inactive) | > 100 µM (inactive) | > 100 µM (inactive) | – | > 100 µM (inactive) | > 100 µM (inactive) | > 100 µM (inactive) | > 100 µM (inactive) | > 100 µM (inactive) | > 100 µM (inactive) | – | > 100 µM (inactive) |
